Experiments:
[1] = system: primary RPEs; assay: L-serine and D-serine in supernatants of primary RPE by HPLC; assay type: cell-based; details: L-ABH 0.0625-0.25 mM pre-treatment 1.5 h, then TNFα 500 unit/ml 12 h; supernatant
Experimental: Primary RPE was cultured in DMEM/F12 plus 20% FBS to a density of 70%, at which it was exchanged for DMEM/F12 plus 1% FBS, L-ABH (0.0625-0.25 mM), or after the control pre-treatment for 1.5 hours, it was exchanged for TNFα (500 unit/ml) to treat for 12 h, the supernatants were collected, and L-serine and D-serine in the supernatants were detected by high performance liquid chromatography. There were six samples in each group. The contents of L-serine and D-serine are shown with box charts in FIG. 4A, with **p<0.01, *p<0.05 showing that there was significant difference of D-serine between the treatment group and the control group. The ratio of L/D-serine was shown in FIG. 4B, with **p<0.01, *p<0.05 showing that there was significant difference between the control groups. In FIG. 4C-FIG. 4E, primary RPEs were co-cultured with macrophages J774A.1, primary RPEs were pretreated with L-ABH (0.125 mM) for 1.5 h, then treated with TNFα (500 unit/ml) for 12 h, with J774A.1 being cultured in the upper layer at the same time for 12 h, after which the supernatants cultured with RPEs were collected, and an enzyme-linked immunosorbent assay was used to detect the productions of MCP-1 (C), VEGF (D), and NO (E). (There were 7 samples for each group). In FIG. 4C, ***p<0.001, compared with the control group, **p<0.01, compared with TNFα treatment group. […]

[2] = system: visual functions; design: species or system C57BL/6j male mice; details: mouse, in vivo
Experimental: The effect of intravenous injection of L-ABH on visual functions are shown in FIGS. 3A-3C, in which C57BL/6j male mice were intravenously injected 6 mg/kg of L-ABH at an age of two months, one day after the injection, visual behaviors were analyzed.

[3] = system: macrophages J774A.1; assay: Migration of macrophages J774A.1 co-cultured with TNFα-treated RPE; assay type: cell-based; details: L-ABH 0.125 mM pre-treatment of RPE 1.5 h, then TNFα 12 h; co-culture 12 h
Experimental: (§1) Using animal models of exAMD, in C57/B6 mice, fundus was irradiated with Krypton red laser (interval at 0.05 s, duration of 0.07 s, and power at 240 mW) to make CNV mice models. A serine racemase competitive inhibitor, L-aspartic acid β-hydroxamate (L-ABH), was injected intravenously at a dosage of 6 mg/kg at the day before laser, and at a dosage of 3 mg/kg at the third day after laser. At the seventh day after laser injury, stretched preparation was performed with choroid/retinal pigment epithelial cells (RPEs), which were stained with metaagglutinin GS-IB4 coupled with Alexa Fluor 594, and the volume of CNV was analyzed. And primary RPEs were utilized in vitro to study the inhibition of L-ABH on the production of VEGF and MCP-1 by RPEs which was induced with TNFα. Macrophages were co-cultured with RPEs to study L-ABH about pre-treating RPEs and inhibiting the migration of macrophages.
The results of L-ABH inhibiting the migration of macrophages under the induction of RPE treated with TNFα are shown in FIGS. 5A-5D, in which RPE was co-cultured with macrophages J774A.1 for 12 h. […] For each culture dish, nine visual fields were randomly selected under the light microscope to be counted, with the statistical analysis seen in FIG. 5D. **p<0.01, compared with the control group, # p<0.05, compared with TNFα treatment group.

[4] = system: retinal functions (B-wave of rod and cone cells); assay: Electroretinographic analysis of retinal function after intravenous L-ABH; assay type: in vivo, C57BL/6J male mice; details: 6 mg/kg i.v., one day after injection, vs saline injection group
Experimental: The effect of intravenous injection of L-ABH on retinal functions is shown in FIGS. 2A-2D, in which C57BL/6J male mice were intravenously injected 6 mg/kg of L-ABH at an age of two months, one day after the injection, an electrographic analysis was performed on the retina. The amplitudes of B-wave in dark and bright views are shown in FIG. 2A, FIG. 2C, and FIG. 2B respectively, and the average values of which are analyzed by histograms in FIG. 2D.

[5] = system: primary RPEs induced with TNFα; assay: Production of VEGF and MCP-1 by TNFα-induced primary RPE (ELISA, co-culture with J774A.1); assay type: cell-based; details: L-ABH 0.125 mM pre-treatment 1.5 h, then TNFα 500 unit/ml 12 h
Experimental: as §1
Primary RPE was cultured in DMEM/F12 plus 20% FBS to a density of 70%, at which it was exchanged for DMEM/F12 plus 1% FBS, L-ABH (0.0625-0.25 mM), or after the control pre-treatment for 1.5 hours, it was exchanged for TNFα (500 unit/ml) to treat for 12 h, the supernatants were collected, and L-serine and D-serine in the supernatants were detected by high performance liquid chromatography. There were six samples in each group. […]

[6] = system: laser-induced choroidal neovascularization; assay: Laser-induced choroidal neovascularization (CNV) mouse model, intravenous L-ABH; assay type: in vivo, C57/B6 mice; details: i.v. 6 mg/kg the day before laser and 3 mg/kg third day after laser; analysed day 7 after laser; p=0.001
Experimental: as §1
The results of inhibiting the laser-induced choroidal neovascularization by intravenously injecting L-ABH are shown in FIGS. 1A-1E, wherein FIG. 1A is CNV produced by laser in 2-month-old wild-type mice. Injection of saline was used as the control group (Con, B); at the day before laser, L-ABH was injected intravenously (2 mg/kg), and 1 mg/kg (C) was injected 3 days after laser; or at the day before laser, L-ABH was injected intravenously (6 mg/kg), and 3 mg/kg (D) was injected 3 days after laser. […]

- retention time of mice in the black box [2]: no difference
- amplitude of B-wave from cone cells in a bright view [4]: no differences
- amplitude of B-wave from rod cells in a dark view [4]: no differences
SMILES: N[C@@H](CC(=O)NO)C(=O)O [L-ABH, L-aspartic acid β-hydroxamate]
- production of D-serine in primary RPEs [1]: decreased the production of D-serine
- ratio of L-serine/D-serine [1]: increased the ratio of L-serine/D-serine
- macrophage migration mediated with RPE induced with TNFα [3]: significantly inhibited macrophage migration
- production of MCP-1 by RPE induced with TNFα [5]: significantly decreasing the production
- production of VEGF by RPE induced with TNFα [5]: significantly decreasing the production
- volume of CNV relative to saline control group [6]: 55%
